# Source: publication PMC5121622, “Cytotoxic and genotoxic potential of food-borne nitriles in a liver in vitro model” (Scientific Reports, 2016)
# “Also recorded” adds a separate entry of the source. Where two headings read alike, the source gives them in different places.
# Tests used:
# [1] = system: human liver cancer (HepG2) cells; experiment: WST-1 cytotoxicity assay in HepG2 cells; assay type: cell-based; details: for IC50: HepG2, 72 h treatment, WST-1 assay; for change in cell viability: HepG2, 72 h, 0.3 to 30 mM
# Procedure: (§1) HepG2 cells were purchased from the German Collection of Microorganisms and Cell Cultures (DSMZ, Braunschweig, Germany). HepG2 cells which constitutively express human CYP2E1 (E47 cells, HepG2-CYP2E1) and control HepG2 cells transfected with empty vector (C34 cells, HepG2- vector), originally established by Wu and Cederbaum[27], were kindly provided by C. Hellerbrand (University Medical Center Regensburg, Germany). The cells were cultured in low glucose Dulbecco’s modified eagle medium supplemented with 15% fetal calf serum and 1% Pen/Strep in an atmosphere with 5% CO2 at 37 °C and 95% air humidity.
# (§2) Cytotoxicity was determined with the WST-1 assay (Roche Diagnostics Deutschland GmbH, Mannheim, Germany). The assay is based on the ability of viable cells to cleave the tetrazolium salt WST-1 to formazan by their mitochondrial succinate-tetrazolium-reductase system. Cells were cultured at an initial density of 5000 cells/well in 96-well plates for 48 h. Then, cells were treated with the nitriles (0.3 to 30 mM, solved in distilled water) for 72 h. As positive control, 0.01% Triton X-100 was used. Following compound exposure and incubation, the WST 1 assay was performed according to the manufacturer’s instructions.
# The median growth inhibitory concentration (IC50) for compound cytotoxicity was calculated using Graphpad Prism 5.0 software (La Jolla, CA). After logarithmic transformation, IC50 values were calculated with equation 1: […]
# [2] = system: HepG2 cells; design: method as in Lamy et al. (2009); details: HepG2, Comet assay and micronucleus test; ref Lamy et al. (2009); cited from earlier work
# [3] = system: primary murine hepatocytes; experiment: WST-1 cell viability in primary murine hepatocytes; assay type: cell-based, mouse; details: 72 h
# Procedure: Murine hepatocytes were obtained from 8–16 week-old, male C57BL6 mice (Charles River Laboratory, Sulzfeld, Germany) as described elsewhere. The institutional and national guidelines for the care and use of animals were followed, and all experimental procedures were approved by the institutional Animal Care and Use Committee at the University of Freiburg according to § 8.I of the Animal Welfare Act. 2–2.2 × 10^5 cells were plated in 24 well plates. The cells were left undisturbed for 4 h in a 5% CO2 atmosphere at 37 °C and then the medium was changed to serum free Williams’ Medium E supplemented with 100 nM dexamethasone. Within 24 h the cells were exposed to the test compounds and controls for 72 h.
# as §2
# [4] = system: HepG2-CYP2E1 cells; experiment: WST-1 cytotoxicity assay in CYP2E1-overexpressing HepG2 cells versus vector control cells; assay type: cell-based, human; details: 10 mM, 72 h
# Procedure: as §1, §2
# [5] = system: HepG2 cells; experiment: Comet assay (DNA strand breaks) in HepG2 cells; assay type: cell-based, human; details: HepG2, 24 h; for concentration with significant increase in DNA strand breaks: Olive Tail Moment and percent tail DNA
# Procedure: (§3) The single cell gel electrophoresis assay also known as Comet assay was carried out as described earlier with slight modifications. The percent tail DNA and the Olive Tail Moment (OTM) were calculated as indicators of DNA damage. For each sample, 102 systematically screened cells were evaluated. Briefly, HepG2 cells were seeded onto well plates. After 48 h of growth, the cells were exposed to the nitriles or ITC for 24 h. As positive control 50 μM B(α)P and as solvent control distilled water or 0.1% DMSO was used. To analyze the repair capacity of HepG2 cells, the test substances were removed after 24 h and incubated for another 24 h before the assay was terminated.
# [6] = system: quinone reductase; details: cited from earlier work
# [7] = system: activated human T lymphocytes; design: method as in PMID 27161402; details: cited from earlier work
# [8] = system: HepG2-CYP2E1 cells; experiment: Comet assay in CYP2E1 transfected HepG2 and vector cells; assay type: cell-based, human; details: 24 h
# Procedure: as §1, §3
# [9] = system: UM-2BB cells; design: method as in Lui et al. (2003); details: MTT-assay, ref Lui et al. (2003); cited from earlier work
# [10] = system: Hepa1c1c7 cells; details: Hepa1c1c7, 5 mM, 72 h; cited from earlier work
# [11] = Homo sapiens, read-out: IC50 (median growth inhibitory concentration)
smiles,measurement,setting,value
"N#CCCc1ccccc1 [2-phenylethyl-CN, 3-phenylpropanenitrile]",IC50,[1]; [11],18.2 mM
"CSCCCC#N [3-MTP-CN, 4-(methylthio)butylnitrile]",IC50,[1]; [11],19.5 mM
"CSCCCN=C=S [3-MTP-ITC, 3-(methylthio)propyl ITC]",concentration inducing DNA damage and mutagenicity,[2],exceeding 1 μM
"C=CCCC#N [3-but-CN, 4-pentenenitrile]",change in cell viability,[1],did not result in significant changes in cell viability
same,viability of hepatocytes,[3],significantly decreased the viability of hepatocytes in a concentration-dependent manner
"CSCCCCC#N [4-MTB-CN, 5-(methylthio)pentylnitrile]",difference in cytotoxicity between CYP2E1-overexpressing and vector control cells,[4],significant difference in cytotoxicity
same,"DNA strand breaks, concentration dependence",[5],concentration-dependent increase in DNA strand breaks
same,concentration with significant increase in DNA strand breaks,[5],≥ 3 µM
same,IC50,[1]; [11],17.9 mM
same,concentration at which a viability loss was detected,[3],30 mM
"C=CCCCC#N [4-pent-CN, 5-hexenenitrile]",change in cell viability,[1],did not result in significant changes in cell viability
"CSCCCCCC#N [5-MTP-CN, 6-(methylthio)hexylnitrile]",IC50,[1]; [11],12.2 mM
"CSCCCCCN=C=S [5-MTP-ITC, 5-(methylthio)pentyl ITC]",concentration inducing DNA damage and mutagenicity,[2],exceeding 1 μM
"CSCCCCCCC#N [6-MTH-CN, 7-(methylthio)heptylnitrile]",IC50,[1]; [11],8.15 mM
"C[S+]([O-])CCCCN=C=S (centres unmarked) [Sulforaphane, 4-(methylsulfinyl)butyl ITC]",concentration inducing quinone reductase,[6],2.5 µM
same,maximum induction of quinone reductase,[6],3.1 fold
"C=CCC#N [allyl-CN, 3-butenenitrile]",change in cell viability,[1],did not result in significant changes in cell viability
same,viability of hepatocytes,[3],significantly decreased the viability of hepatocytes in a concentration-dependent manner
"N#CCc1ccccc1 [benzyl-CN, phenylacetonitrile]","DNA strand breaks, concentration dependence",[5],concentration-dependent increase in DNA strand breaks
same,DNA damage compared with benzyl ITC,[5]; 3 μM,comparable with the effect of benzyl ITC at the same concentration; also recorded: comparable with the effect of benzyl-ITC in the same concentration
same,concentration with significant increase in DNA strand breaks,[5],≥ 3 µM
same,IC50,[1]; [11],19.9 mM
same,influence on PGE2 release,[7]; 1 mM,did not influence PGE2 release
same,viability of hepatocytes,[3],significantly decreased the viability of hepatocytes in a concentration-dependent manner
same,concentration with significant increment of DNA strand breaks by CYP2E1-overexpression as compared to vector control cells,[8],≥ 3 µM
"S=C=NCc1ccccc1 [benzyl-ITC, benzyl ITC, reference compound]",IC50,[9],17 µM
same,IC50,[1]; read-out: IC50,0.0158 mM
same,cytotoxic potency relative to the nitriles,"[1]; HepG2, ITC versus corresponding nitrile",1000 fold
same,concentration with strong interference with pro-inflammatory response including PGE2 release,[7]; activated human T lymphocytes,≥ 3 µM
"C=CC(O)CC#N (centres unmarked) [crambene, 3-hydroxy-4-pentenenitrile]",cell proliferation diminished by,[10],76%
same,cell viability reduced by,[10],12%
"C[S+]([O-])CCCCC#N (centres unmarked) [sulforaphane nitrile, 5-(methylsulfinyl)pentylnitrile]",concentration reaching a similar induction of quinone reductase as sulforaphane,[6],2 mM
